From patent US8815849B2, “Hetero-bicyclic derivatives as HCV inhibitors” (Janssen R&D Ireland, priority 2010, dated 2014)
Read-outs that look alike come from different tables or passages of the source.

Tested on: HCV replicon (Huh-Luc cells, NS3-NS5B regions of HCV type 1b)
Test: HCV replicon assay (Huh-7 luc/neo, luciferase readout)
Type: cell-based
Conditions: average if tested more than once
Source text: The in vitro antiviral activity against HCV of the compounds of formula I can be tested in a cellular HCV replicon system based on Lohmann et al. (1999) Science 285:110-113, with the further modifications described by Krieger et al. (2001) Journal of Virology 75: 4614-4624 (incorporated herein by reference), which is further exemplified in the examples section. This model, while not a complete infection model for HCV, is widely accepted as the most robust and efficient model of autonomous HCV RNA replication currently available. It will be appreciated that it is important to distinguish between compounds that specifically interfere with HCV functions from those that exert cytotoxic or cytostatic effects in the HCV replicon model, and as a consequence cause a decrease in HCV RNA or linked reporter enzyme concentration. Assays are known in the field for the evaluation of cellular cytotoxicity based for example on the activity of mitochondrial enzymes using fluorogenic redox dyes such as resazurin. Furthermore, cellular counter screens exist for the evaluation of non-selective inhibition of linked reporter gene activity, such as firefly luciferase. Appropriate cell types can be equipped by stable transfection with a luciferase reporter gene whose expression is dependent on a constitutively active gene promoter, and such cells can be used as a counter-screen to eliminate non-selective inhibitors.
The compounds of formula (I) were examined for inhibitory activity in the HCV replicon. This cellular assay is based on a bicistronic expression construct, as described by Lohmann et al. (1999) Science vol. 285 pp. 110-113 with modifications described by Krieger et al. (2001) Journal of Virology 75: 4614-4624, in a multi-target screening strategy.
The assay utilized the stably transfected cell line Huh-7 luc/neo (hereafter referred to as Huh-Luc). This cell line harbors an RNA encoding a bicistronic expression construct comprising the wild type NS3-NS5B regions of HCV type 1b translated from an
Internal Ribosome Entry Site (IRES) from encephalomyocarditis virus (EMCV), preceded by a reporter portion (FfL-luciferase), and a selectable marker portion (neo^R, neomycine phosphotransferase). The construct is flanked by 5′ and 3′ NTRs (non-translated regions) from HCV type 1b. Continued culture of the replicon cells in the presence of G418 (neo^R) is dependent on the replication of the HCV RNA. The stably transfected replicon cells that express HCV RNA, which replicates autonomously and to high levels, encoding inter alia luciferase, were used for screening the antiviral compounds.
The replicon cells were plated in 384 well plates in the presence of the test and control compounds which were added in various concentrations. Following an incubation of three days, HCV replication was measured by assaying luciferase activity (using standard luciferase assay substrates and reagents and a Perkin Elmer ViewLux™ ultraHTS microplate imager). Replicon cells in the control cultures have high luciferase expression in the absence of any inhibitor. The inhibitory activity of the compound on luciferase activity was monitored on the Huh-Luc cells, enabling a dose-response curve for each test compound. EC50 values were then calculated, which represent the amount of compound required to decrease the level of detected luciferase activity by 50%, or more specifically, to reduce the ability of the genetically linked HCV replicon RNA to replicate.
Where a compound of formula (I) was tested more than once in the replicon assay, the average of all test results is given in this Table 1.

[1] = Huh-Luc replicon cells, three days incubation, luciferase activity, read-out: HCV-REP-HUH7LUC_EC50
[2] = Hepatitis C virus, Huh-7, 72 h, Huh-Luc replicon cells, three days incubation, luciferase activity, read-out: HCV-REP-HUH7LUC_EC50

SMILES | EC50 [1] [nM] | EC50 [2] [nM] | further results
COC(=O)N[C@H](C(=O)N1CCCC1c1cc(=O)c2cc(-c3ccc4cc(-c5cnc([C@@H]6CCCN6C(=O)[C@@H](NC(=O)OC)C(C)C)[nH]5)ccc4c3)ccc2[nH]1)C(C)C (single isomer, unassigned) [Compound 22a] | 3.4 | – | –
COC(=O)N[C@H](C(=O)N1CCCC1c1cc(=O)c2cc(-c3ccc4cc(-c5cnc([C@@H]6CCCN6C(=O)[C@@H](NC(=O)OC)C(C)C)[nH]5)ccc4c3)ccc2[nH]1)C(C)C (single isomer, unassigned) [Compound 22b] | 0.052 | – | –
CC[C@H](C)[C@H](NC(=O)OC)C(=O)N1CCCC1c1cc(=O)c2cc(-c3ccc4cc(-c5cnc([C@@H]6CCCN6C(=O)[C@@H](NC(=O)OC)[C@@H](C)CC)[nH]5)ccc4c3)ccc2[nH]1 (single isomer, unassigned) [Compound 24a] | 9.6 | – | –
COC(=O)N[C@H](C(=O)N1CCCC1c1[nH]c2cc(-c3ccc4cc(-c5cnc([C@@H]6CCCN6C(=O)[C@@H](NC(=O)OC)C(C)C)[nH]5)ccc4c3)ccc2c(=O)c1Cl)C(C)C (single isomer, unassigned) [Compound 106a] | 0.12 | – | –
COC(=O)N[C@H](C(=O)N1CCCC1c1[nH]c2cc(-c3ccc4cc(-c5cnc([C@@H]6CCCN6C(=O)[C@@H](NC(=O)OC)C(C)C)[nH]5)ccc4c3)ccc2c(=O)c1Cl)C(C)C (single isomer, unassigned) [Compound 106b] | 20.6 | – | –
COC(=O)N[C@H](C(=O)N1CCC[C@H]1c1ncc(-c2ccc3cc(-c4ccc5c(=O)cc(C6CCCN6C(=O)[C@@H](NC(=O)OC)[C@@H](C)OC)[nH]c5c4)ccc3c2)[nH]1)C(C)C (stereo partly shown) [Compound 13-A1] | – | 0.1 | –
CC[C@H](NC(=O)OC)C(=O)N1CCCC1c1cc(=O)c2ccc(-c3ccc4cc(-c5cnc([C@@H]6CCCN6C(=O)[C@@H](NC(=O)OC)C(C)C)[nH]5)ccc4c3)cc2[nH]1 (stereo partly shown) [Compound 13-A2] | – | 0.079 | –
COC(=O)NC(C(=O)N1CCCC1c1cc(=O)c2ccc(-c3ccc4cc(-c5cnc([C@@H]6CCCN6C(=O)[C@@H](NC(=O)OC)C(C)C)[nH]5)ccc4c3)cc2[nH]1)C1CCOCC1 (stereo partly shown) [Compound 13-A4] | – | 1.2 | –
CC[C@@H](C)[C@H](NC(=O)OC)C(=O)N1CCCC1c1cc(=O)c2ccc(-c3ccc4cc(-c5cnc([C@@H]6CCCN6C(=O)[C@@H](NC(=O)OC)C(C)C)[nH]5)ccc4c3)cc2[nH]1 (stereo partly shown) [Compound 13-A5] | – | 0.062 | –
COCC[C@H](NC(=O)OC)C(=O)N1CCCC1c1cc(=O)c2ccc(-c3ccc4cc(-c5cnc([C@@H]6CCCN6C(=O)[C@@H](NC(=O)OC)C(C)C)[nH]5)ccc4c3)cc2[nH]1 (stereo partly shown) [Compound 13-A6] | – | 0.5 | –
COC[C@H](NC(=O)OC(C)(C)C)C(=O)N1CCCC1c1cc(=O)c2ccc(-c3ccc4cc(-c5cnc([C@@H]6CCCN6C(=O)[C@@H](NC(=O)OC)C(C)C)[nH]5)ccc4c3)cc2[nH]1 (stereo partly shown) [Compound 13-A7] | – | 0.053 | –
COC[C@H](NC(=O)OC)C(=O)N1CCCC1c1cc(=O)c2ccc(-c3ccc4cc(-c5cnc([C@@H]6CCCN6C(=O)[C@@H](NC(=O)OC)C(C)C)[nH]5)ccc4c3)cc2[nH]1 (stereo partly shown) [Compound 13-A8] | – | 0.18 | –
COC(=O)N[C@H](C(=O)N1CCCC1c1cc(=O)c2ccc(-c3ccc4cc(-c5cnc([C@@H]6CCCN6C(=O)[C@@H](NC(=O)OC)C(C)C)[nH]5)ccc4c3)cc2[nH]1)C(C)C (stereo partly shown) [Compound 13] | 0.028 | – | –
COC(=O)N[C@H](C(=O)N1CCCC1c1cc(=O)c2ccc(-c3ccc4cc(-c5cnc([C@@H]6CCCN6C(=O)[C@@H](NC(=O)OC)C(C)C)[nH]5)ccc4c3)cc2[nH]1)C(C)C (stereo partly shown) [Compound 13a] | 0.91 | – | –
COC(=O)N[C@H](C(=O)N1CCCC1c1cc2ccc(-c3ccc4cc(-c5cnc([C@@H]6CCCN6C(=O)[C@@H](NC(=O)OC)[C@@H](C)OC)[nH]5)ccc4c3)cc2c(=O)[nH]1)[C@@H](C)OC (stereo partly shown) [Compound 20-A] | – | – | EC50 (Hepatitis C virus, Huh-7, 72 h, read-out: HCV-REP-HUH7LUC_EC50 (nM), Huh-Luc replicon cells, three days incubation, luciferase activity): 0.2 nM
COC(=O)N[C@H](C(=O)N1CCCC1c1cc2ccc(-c3ccc4cc(-c5cnc([C@@H]6CCCN6C(=O)[C@@H](NC(=O)OC)C(C)C)[nH]5)ccc4c3)cc2c(=O)[nH]1)C(C)C (stereo partly shown) [Compound 20] | – | 0.79 | –
